Tested on: Spontaneous Hypertensive rats (SHR)
Experiment: Rat telemetry, blood pressure and heart rate
Format: in vivo
Conditions: 3 mg/kg enalapril alone, twice daily oral, SHR
Excerpt: Male Sprague Dawley (Taconic Biosciences) rats, Spontaneous Hypertensive rats (Charles River Laboratories, United States), and Dahl Salt Sensitive rats (Medical College of Wisconsin) were implanted with transmitters (HD S10; Data Science International) for collection of BP and heart rate (HR) data. The transmitters are capable of transmitting a BP signal via a pressure catheter inserted into the abdominal aorta. Initially, a baseline was established and recorded. Each rat was then removed from its recording cage and was dosed by p.o. gavage with vehicle or compound and the animals were then returned to the recording cage. Data sampling for BP and HR was carried out in intervals at selected time points for the duration of the experiment.
All data in this manuscript were presented as mean ± SEM with a significance level of p < 0.05, and n represents the number of individual animals. The significance of differences in concentration-response curves in the ear temperature and, myograft study were calculated using t-test, compare to the vehicle group. The EC50 was calculated using GraphPad Prism 8.3 using a 4-parameter logistic non-linear curve fit model. Single-dose rat telemetry data for normal and SHR rats and repeat-dose telemetry data in Dahls salt-sensitive rats were analyzed by two-way repeated measures ANOVA. Treatment group main effects were compared by Tukey’s HSD method. All telemetry data were analyzed with GraphPad Prism 8.3.

Compound: CCOC(=O)[C@H](CCc1ccccc1)N[C@@H](C)C(=O)N1CCC[C@H]1C(=O)O [enalapril, reference compound]
- heart rate: without affecting the heart rate
- lowering of MAP: 13%
